Assay results taken from patent US20250388605A1, “HETEROBIFUNCTIONAL COMPOUNDS AND METHODS OF TREATING DISEASE” (Halda Therapeutics OpCo, Inc., priority 2022, published 2025).

What was measured:
[1] = test system: T-Rex 293 cell line SC3 cells having increased expression of androgen receptor protein due to exposure to doxycycline; experiment: Cellular growth inhibition, T-Rex 293 SC3 cells with doxycycline (increased androgen receptor expression), CellTiter-Glo; assay type: cell-based; settings: T-Rex 293 SC3 cells with 10 ng/mL doxycycline (increased androgen receptor expression), 72 hours, CellTiter-Glo 2.0
Method: (§1) The following types of cells were prepared for this experiment: (i) a T-Rex 293 cell line having increased expression of androgen receptor protein due to exposure to doxycycline and (ii) a T-Rex 293 cell line lacking increased expression of androgen receptor protein. Ability of the test compounds to inhibit proliferation of the foregoing cell types was evaluated according to the procedures set forth below.
(§2) The doxycycline-inducible androgen receptor protein expressing cell line was established using the following protocol: T-Rex 293 cells were purchased from Invitrogen (Cat #R71007) and transfected using Lipofectamine 2000 with the wild-type androgen receptor protein sequence cloned into the pcDNA4/TO vector. Transfected cells were selected using 400 μg/mL Zeocin (Invitrogen Cat #R25001). Following selection, single clones were raised and maintained in Dulbecco's Modified Eagle Medium (DMEM) supplemented with 10% w/w Tetracycline-free fetal bovine serum (FBS) and 250 μg/mL Zeocin. Clones were analyzed for expression of androgen receptor protein in the presence and absence of 10 ng/mL doxycycline (Sigma Cat #D9891), and a single doxycycline-inducible clone (hereinafter “SC3”) was selected for use in downstream assays.
(§3) The SC3 cells were seeded on poly-D-lysine coated, black clear-bottom 384-well plates at 2500/well, in 25 μL Phenol Red Free Dulbecco's Modified Eagle Medium (DMEM) supplemented with 10% w/w charcoal-dextran treated fetal bovine serum (FBS) and 1% w/w pen-strep, with or without 10 ng/mL doxycycline. Pen-Strep is a commercially available mixture of penicillin G and streptomycin, which is used in mammalian cell culture media to prevent bacterial contamination. Phenol Red Free Dulbecco's Modified Eagle Medium (DMEM) supplemented with 10% w/w charcoal-dextran treated fetal bovine serum (FBS) and 1% w/w pen-strep, with or without 10 ng/mL doxycycline is herein referred to as Treatment Medium. Following seeding of cells in the plates, the plates were spun at 300×g for 30 seconds, then equilibrated to room temperature for 30 minutes, and then deposited in a humidified tissue culture incubator maintained at 37° C. with 5% CO2.
(§4) At 24 hours after seeding of the cells, dilutions of test compound were prepared in DMSO and dissolved in Treatment Medium, to achieve a final DMSO concentration of 0.5% w/w, thereby providing the Test Compound Solution. A 25 μL aliquot of the Test Compound Solution was added to cells in the well plates. An equal volume of a solution containing DMSO and Treatment Medium was used as a negative control. Following treatment of cells with Test Compound Solution or said equal volume of a solution containing DMSO and Treatment Medium, the plates were spun at 300×g for 30 seconds, and then left in an incubator for 72 hours.
(§5) At the end of the treatment duration, cell viability was quantified with CellTiter-Glo 2.0 reagent (Promega Cat #G9243). For this purpose, plates were equilibrated to room temperature for 30 minutes, and then 25 μL of CellTiter-Glo 2.0 reagent was added to cells in the plate wells. Plates were then agitated on a shaker for two minutes at 500 rpm and subsequently incubated at room temperature for 10 minutes. Following incubation, the plates were spun at 3000×g for 30 seconds, then sealed with an optical adhesive cover, and luminescence readings were measured with an EnVision Plate Reader.
(§6) Data was normalized using zero luminescence for baseline. A four-parameter non-linear regression curve fit was applied to dose-response data in GraphPad Prism data analysis software to determine the half-maximal growth inhibitory concentration (GI50) for each test compound.

[2] = test system: T-Rex 293 cell line SC3 cells lacking increased expression of androgen receptor protein; experiment: Cellular growth inhibition, T-Rex 293 SC3 cells without doxycycline (no increased androgen receptor expression), CellTiter-Glo; assay type: cell-based; settings: T-Rex 293 SC3 cells not exposed to doxycycline (no increased androgen receptor expression), 72 hours
Method: as §1, §2, §3, §4, §5, §6

[3] = test system: VCaP cells; experiment: Cellular growth inhibition assay for VCaP cells, CellTiter-Glo; assay type: cell-based, human; settings: 72 hours
Method: VCaP cells were purchased from American Type Cell Culture (ATCC Cat #CRL2876) and then seeded on poly-D-lysine coated, black clear-bottom 384-well plates at 5000/well in 25 μL Dulbecco's Modified Eagle Medium (DMEM) supplemented with 10% w/w Fetal bovine serum (FBS) and 1% w/w Pen-Strep. Pen-Strep is a commercially available mixture of penicillin G and streptomycin, which is used in mammalian cell culture media to prevent bacterial contamination. Dulbecco's Modified Eagle Medium (DMEM) supplemented with 10% w/w fetal bovine serum (FBS) and 1% w/w Pen-Strep is herein referred to as Treatment Medium. Following seeding of cells in the plates, the plates were spun at 300×g for 30 seconds, then equilibrated to room temperature for 30 minutes, and then deposited in a humidified tissue culture incubator maintained at 37° C. with 5% CO2.
as §4, §5, §6

Row | SMILES | GI50 ([3]; Homo sapiens) | GI50 [3] | GI50 [1] | GI50 [2]
1 | CCS(=O)(=O)Nc1ccc(Oc2cccc(OC3CN(CC4CCN(c5ncc(C(=O)N[C@H]6C(C)(C)[C@H](Oc7ccc(C#N)c(Cl)c7)C6(C)C)cn5)CC4)C3)c2)c(-c2cn(C)c(=O)c3[nH]ccc23)c1 [Compound I-38] | < 0.5 µM |  | < 0.5 µM | < 0.5 µM
2 | CCS(=O)(=O)Nc1cnc(Oc2cccc(OCCOC3CCN(c4cnc(C(=O)N[C@H]5C(C)(C)[C@H](Oc6ccc(C#N)c(Cl)c6)C5(C)C)cn4)CC3)c2)c(-c2cn(C)c(=O)c3[nH]ccc23)c1 [Compound I-46] | < 0.5 µM |  | < 0.5 µM | > 3 µM
3 | CCS(=O)(=O)Nc1ccc(Oc2cccc(OCCN(C)C3CCN(c4ncc(C(=O)N[C@H]5C(C)(C)[C@H](Oc6ccc(C#N)c(Cl)c6)C5(C)C)cn4)CC3)c2)c(-c2cn(C)c(=O)c3[nH]ccc23)c1 [Compound I-87] | < 0.5 µM |  | < 0.5 µM | < 0.5 µM
4 | Cn1cc(-c2cc(NS(=O)(=O)C3CC3)ccc2Oc2cccc(CCOC3CCN(c4ncc(C(=O)N[C@H]5C(C)(C)[C@H](Oc6ccc(C#N)c(Cl)c6)C5(C)C)cn4)CC3)c2)c2cc[nH]c2c1=O [Compound I-145] |  | 1.5 to 3 µM | < 0.5 µM | > 3 µM
5 | CCS(=O)(=O)Nc1ccc(Oc2cc(OCCOC3CCN(c4ncc(C(=O)N[C@H]5C(C)(C)[C@H](Oc6ccc(C#N)c(Cl)c6)C5(C)C)cn4)CC3)ccc2F)c(-c2cn(C)c(=O)c3[nH]ccc23)c1 [Compound I-150] | < 0.5 µM |  | < 0.5 µM | > 3 µM
6 | CCS(=O)(=O)Nc1ccc(Oc2cccc(N(C)CCN(C)C3CCN(c4ncc(C(=O)N[C@H]5C(C)(C)[C@H](Oc6ccc(C#N)c(Cl)c6)C5(C)C)cn4)CC3)c2)c(-c2cn(C)c(=O)c3[nH]ccc23)c1 [Compound I-86] | < 0.5 µM |  | < 0.5 µM | < 0.5 µM
7 | CCS(=O)(=O)Nc1ccc(Oc2cccc(OCCCCC3CCN(c4ncc(C(=O)N[C@H]5C(C)(C)[C@H](Oc6ccc(C#N)c(Cl)c6)C5(C)C)cn4)CC3)c2)c(-c2cn(C)c(=O)c3[nH]ccc23)c1 [Compound I-28] | < 0.5 µM |  | < 0.5 µM | 0.5 to 1.5 µM
8 | CCS(=O)(=O)Nc1ccc(Oc2cccc(OCCCOC3CCN(c4ncc(C(=O)N[C@H]5C(C)(C)[C@H](Oc6ccc(C#N)c(Cl)c6)C5(C)C)cn4)CC3)c2)c(-c2cn(C)c(=O)c3[nH]ccc23)c1 [Compound I-17] | < 0.5 µM |  | < 0.5 µM | < 0.5 µM
9 | CCS(=O)(=O)Nc1cc(F)c(Oc2cccc(OCCOC3CCN(c4ncc(C(=O)N[C@H]5C(C)(C)[C@H](Oc6ccc(C#N)c(Cl)c6)C5(C)C)cn4)CC3)c2)c(-c2cn(C)c(=O)c3[nH]ccc23)c1 [Compound I-161] | < 0.5 µM |  | < 0.5 µM | > 3 µM

Continued, in another order:

Row | GI50 ([3]; Homo sapiens) | GI50 [3] | SMILES | GI50 [1] | GI50 [2]
10 | < 0.5 µM |  | CCS(=O)(=O)Nc1ccc(Oc2cccc(OCCOCCCOC3CCN(c4ncc(C(=O)N[C@H]5C(C)(C)[C@H](Oc6ccc(C#N)c(Cl)c6)C5(C)C)cn4)CC3)c2)c(-c2cn(C)c(=O)c3[nH]ccc23)c1 [Compound I-16] | < 0.5 µM | < 0.5 µM
11 | < 0.5 µM |  | CCS(=O)(=O)Cc1ccc(Oc2cccc(N3CC(N4CCN(c5ncc(C(=O)N[C@H]6C(C)(C)[C@H](Oc7ccc(C#N)c(Cl)c7)C6(C)C)cn5)CC4)C3)c2F)c(-c2cn(C)c(=O)c3[nH]ccc23)c1 [Compound I-174] | < 0.5 µM | > 3 µM
12 | < 0.5 µM |  | CCS(=O)(=O)Nc1ccc(Oc2ccc(F)c(OCCOC3CCN(c4ncc(C(=O)N[C@H]5C(C)(C)[C@H](Oc6ccc(C#N)c(Cl)c6)C5(C)C)cn4)CC3)c2)c(-c2cn(C)c(=O)c3[nH]ccc23)c1 [Compound I-128] | < 0.5 µM | > 3 µM
13 | < 0.5 µM |  | CCS(=O)(=O)Nc1ccc(Oc2cc(OCCOC3CCN(c4ncc(C(=O)N[C@H]5C(C)(C)[C@H](Oc6ccc(C#N)c(Cl)c6)C5(C)C)cn4)CC3)ccn2)c(-c2cn(C)c(=O)c3[nH]ccc23)c1 [Compound I-111] | < 0.5 µM | > 3 µM
14 |  | > 3 µM | CCS(=O)(=O)Nc1ccc(Oc2cccc(N(C)C3CC(C4CCN(c5ncc(C(=O)N[C@H]6C(C)(C)[C@H](Oc7ccc(C#N)c(Cl)c7)C6(C)C)cn5)CC4)C3)c2)c(-c2cn(C)c(=O)c3[nH]ccc23)c1 (stereo partly drawn) [Compound I-172] | < 0.5 µM | > 3 µM
15 |  | 1.5 to 3 µM | Cn1cc(-c2cc(C(C)(C)O)ccc2Oc2ccc(N3CC4(CCN(c5ncc(C(=O)N[C@H]6C(C)(C)[C@H](Oc7ccc(C#N)c(Cl)c7)C6(C)C)cn5)CC4)C3)cc2)c2cc[nH]c2c1=O [Compound I-353] | < 0.5 µM | 1.5 to 3 µM
16 | < 0.5 µM |  | CCS(=O)(=O)Nc1ccc(Oc2cccc(OCCOC3CCN(c4ccc(C(=O)N[C@H]5C(C)(C)[C@H](Oc6ccc(C#N)c(Cl)c6)C5(C)C)cn4)CC3)c2F)c(-c2cn(C)c(=O)c3[nH]ccc23)c1 [Compound I-188] | < 0.5 µM | < 0.5 µM
17 | < 0.5 µM |  | Cn1cc(-c2cc(NS(C)(=O)=O)ccc2Oc2cccc(OCCOC3CCN(c4ncc(C(=O)N[C@H]5C(C)(C)[C@H](Oc6ccc(C#N)c(Cl)c6)C5(C)C)cn4)CC3)c2)c2cc[nH]c2c1=O [Compound I-50, N-((1r, 3r)-3-(3-chloro-4-cyanophenoxy)-2,2,4,4-tetramethylcyclobutyl)-2-(4-(2-(3-(2-(6-methyl-7-oxo-6,7-dihydro-1H-pyrrolo[2,3-c]pyridin-4-yl)-4-(methylsulfonamido)phenoxy)phenoxy)ethoxy)piperidin-1-yl)pyrimidine-5-carboxamide] | < 0.5 µM | < 0.5 µM
18 | < 0.5 µM |  | CCS(=O)(=O)Cc1ccc(Oc2cccc(OCCCC3CCN(c4ncc(C(=O)N[C@H]5C(C)(C)[C@H](Oc6ccc(C#N)c(Cl)c6)C5(C)C)cn4)CC3)c2F)c(-c2cn(C)c(=O)c3[nH]ccc23)c1 [Compound I-168] | < 0.5 µM | > 3 µM
19 | < 0.5 µM |  | CCS(=O)(=O)c1ccc(Oc2cccc(CCCOC3CCN(c4ncc(C(=O)N[C@H]5C(C)(C)[C@H](Oc6ccc(C#N)c(Cl)c6)C5(C)C)cn4)CC3)c2F)c(-c2cn(C)c(=O)c3[nH]ccc23)c1 [Compound I-176] | < 0.5 µM | < 0.5 µM
20 | < 0.5 µM |  | CCS(=O)(=O)Nc1ccc(Oc2cc(F)cc(OCCOC3CCN(c4ncc(C(=O)N[C@H]5C(C)(C)[C@H](Oc6ccc(C#N)c(Cl)c6)C5(C)C)cn4)CC3)c2)c(-c2cn(C)c(=O)c3[nH]ccc23)c1 [Compound I-127] | < 0.5 µM | > 3 µM
21 | < 0.5 µM |  | CCS(=O)(=O)Nc1ccc(Oc2cccc(OCCCN3CCN(CC4CCN(c5ncc(C(=O)N[C@H]6C(C)(C)[C@H](Oc7ccc(C#N)c(Cl)c7)C6(C)C)cn5)CC4)CC3)c2)c(-c2cn(C)c(=O)c3[nH]ccc23)c1 [Compound I-33] | < 0.5 µM | < 0.5 µM
22 |  | < 0.5 µM | CCS(=O)(=O)Nc1ccc(Oc2ccc(OCCOC3CCN(c4ncc(C(=O)N[C@H]5C(C)(C)[C@H](Oc6ccc(C#N)c(Cl)c6)C5(C)C)cn4)CC3)cc2)c(-c2cn(C)c(=O)c3[nH]ccc23)c1 [Compound I-139] | < 0.5 µM | < 0.5 µM
